The NIST ThermoML archive (doi:10.1016/j.tca.2004.11.015)

Assay: xn = mol fraction of the nth substance listed
Conditions: 101.33 kPa, Liquid, Vibrating tube method

NCCO [2-aminoethan-1-ol] + CO
mass density [kg/m3]
Conditions | 318.15 K | 323.15 K | 328.15 K | 333.15 K | 338.15 K | 343.15 K | 348.15 K | 353.15 K
x1 = 0.012 | – | 768.02 | 763.16 | 758.24 | – | – | – | –
x1 = 0.031 | – | 776.31 | 771.48 | 766.6 | – | – | – | –
x1 = 0.05 | – | 784.19 | 779.4 | 774.56 | 769.67 | 764.72 | 759.71 | 754.62
x1 = 0.1 | – | 804.01 | 799.31 | 794.56 | 789.76 | 784.91 | 780 | 775.02
x1 = 0.15 | – | 822.17 | 817.54 | 812.87 | 808.15 | 803.39 | 798.56 | 793.68
x1 = 0.2002 | – | 839.11 | 834.54 | 829.94 | 825.28 | 820.58 | 815.83 | 811.02
x1 = 0.2501 | – | 854.48 | 849.96 | 845.4 | 840.8 | 836.17 | 831.49 | 826.76
x1 = 0.2974 | 872.55 | 868.11 | 863.65 | 859.14 | 854.6 | 850 | 845.36 | 840.69
x1 = 0.3502 | 886.63 | 882.25 | 877.83 | 873.37 | 868.88 | 864.35 | 859.77 | 855.14
x1 = 0.4001 | 898.67 | 894.33 | 889.95 | 885.53 | 881.08 | 876.6 | 872.07 | 867.5
x1 = 0.4427 | 908.45 | 904.14 | 899.79 | 895.41 | 890.99 | 886.55 | 882.06 | 877.53
x1 = 0.4502 | 910.28 | 905.97 | 901.63 | 897.26 | 892.86 | 888.42 | 883.94 | 879.42
x1 = 0.5002 | 920.74 | 916.46 | 912.15 | 907.81 | 903.44 | 899.04 | 894.6 | 890.11
x1 = 0.5501 | 930.55 | 926.3 | 922.03 | 917.72 | 913.38 | 909.01 | 904.62 | 900.18
x1 = 0.6001 | 939.84 | 935.62 | 931.37 | 927.1 | 922.8 | 918.47 | 914.1 | 909.7
x1 = 0.6501 | 948.51 | 944.31 | 940.1 | 935.85 | 931.59 | 927.29 | 922.96 | 918.6
x1 = 0.7005 | 956.89 | 952.72 | 948.53 | 944.32 | 940.08 | 935.81 | 931.52 | 927.19
x1 = 0.7479 | 963.92 | 959.78 | 955.62 | 951.43 | 947.22 | 942.98 | 938.72 | 934.42
x1 = 0.8002 | 971.82 | 967.71 | 963.57 | 959.42 | 955.24 | 951.03 | 946.8 | 942.54
x1 = 0.8502 | 978.32 | 974.23 | 970.12 | 965.99 | 961.84 | 957.66 | 953.46 | 949.23
x1 = 0.8967 | 984.55 | 980.48 | 976.39 | 972.29 | 968.16 | 964.01 | 959.83 | 955.62
x1 = 0.9501 | 990.85 | 986.81 | 982.75 | 978.67 | 974.57 | 970.45 | 966.3 | 962.12
